{"source": "paper PMC6383986", "about": "“Fragment-Based Covalent Ligand Screening Enables Rapid Discovery of Inhibitors for the RBR E3 Ubiquitin Ligase HOIP” (Journal of the American Chemical Society, 2019)", "molecular_target": "T1, 3 × FLAG-tagged HOIP RBR domain in HEK293T cells (Homo sapiens, UniProt Q96EP0)", "T1 construct": "expressed in transfected cells; host or cells: HEK293T, transient, modified pcDNA3.1(+)", "T1 sequence (Q96EP0 697-1072)": "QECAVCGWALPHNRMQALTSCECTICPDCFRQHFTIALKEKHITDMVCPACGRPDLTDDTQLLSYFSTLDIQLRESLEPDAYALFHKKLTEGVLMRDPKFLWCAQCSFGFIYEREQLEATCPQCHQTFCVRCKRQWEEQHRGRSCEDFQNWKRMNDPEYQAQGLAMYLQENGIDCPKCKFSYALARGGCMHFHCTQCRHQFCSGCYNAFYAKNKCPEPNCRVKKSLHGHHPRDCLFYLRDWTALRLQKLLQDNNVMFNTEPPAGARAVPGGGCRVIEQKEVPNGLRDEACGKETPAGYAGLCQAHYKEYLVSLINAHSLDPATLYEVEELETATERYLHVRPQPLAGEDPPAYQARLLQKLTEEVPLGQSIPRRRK", "experiment": "In-cell labeling, FLAG-IP, tryptic digest and LC-MS/MS", "assay_type": "cell-based", "conditions": "30 μM, 8 h", "experimental": "Transfection and compound treatment\nAt approximately 40% confluency, as judged by visual inspection by microscope, cells were transfected by mixing Optimem (Gibco) with the relevant pcDNA3.1 construct (3 µg; 3×FLAG HOIP RBR, 3×FLAG HOIP RBR C885A or mock) and FuGENE transfection reagent (9 µL, vortexed prior to use; Promega) respectively. The solutions were mixed thoroughly and incubated at room temperature for 15 min, then added dropwise and the media was swirled gently to ensure homogenous mixing. The cells were incubated at 37 °C (Binder) for 48 h. Fresh DMEM media supplemented with 1% v/v FBS (Biosera) and 1% v/v L-glutamine/penicillin/streptomycin (Sigma-Aldrich) was aliquoted into 15 mL Falcon tubes (typically 8 mL/tube). […]\nThe lysates were clarified by centrifugation (Heraeus Fresco 17) at 17 000 × g, 4 °C for 20 min and the pellet discarded. The protein concentration was determined using the BCA assay (see […]\nThe protein concentrations of the clarified lysates were normalized with reaction buffer (50 mM Tris-HCl, pH 7.5, 1.5 mM MgCl2, 150 mM NaCl, 1 mM Na3VO4, complete protease inhibitor) to 1.0 mg/mL (final volume 400 µL, and <0.1% IGEPAL-CA630). […] One set of beads were denatured in 2× LDS loading buffer and analyzed by SDS PAGE and Western blot (FLAG antibody, Supplementary Figure S12) as described in […]", "note": "Entries after “also recorded” stand apart in the source; their conditions may differ.", "data": [{"smiles": "COC(=O)/C=C/CNC(=O)c1cc2c([nH]c1=O)CCCC2", "note": "[Compound 11a]", "values": [{"measurement": "in-cell labeling of HOIP RBR at C885", "value": "significantly labeled; also recorded: significant labeling"}]}]}
